From patent US6632829B2, “Sulfonamides and derivatives thereof that modulate the activity of endothelin” (Texas Biotechnology Corp., priority 1996, dated 2003)
Where two headings read alike, the source gives them in different places.

Assays:
human ETB receptor = target: T1, human ETB receptor (Homo sapiens, UniProt P24530); experiment: Endothelin binding inhibition, Binding Test #2: competition with 125I-ET-1 for ETB receptors on transfected COS7 cell membranes
T1 construct: expressed in transfected cells; host or cells: COS7 cells
T1 sequence (P24530 27-442): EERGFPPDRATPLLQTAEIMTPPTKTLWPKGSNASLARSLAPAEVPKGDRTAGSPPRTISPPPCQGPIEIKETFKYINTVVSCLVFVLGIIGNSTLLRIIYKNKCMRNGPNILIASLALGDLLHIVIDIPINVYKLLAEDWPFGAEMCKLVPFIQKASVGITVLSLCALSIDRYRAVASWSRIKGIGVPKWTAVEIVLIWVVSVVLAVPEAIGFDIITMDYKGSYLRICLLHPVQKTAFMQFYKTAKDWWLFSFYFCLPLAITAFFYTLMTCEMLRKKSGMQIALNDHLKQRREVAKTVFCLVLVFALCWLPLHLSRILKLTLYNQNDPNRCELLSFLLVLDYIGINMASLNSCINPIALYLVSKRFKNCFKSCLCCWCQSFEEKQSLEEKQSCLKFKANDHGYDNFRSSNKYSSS
Procedure, shortened: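 Membranes from COS7 cells transfected with human ETB receptor, prepared in HEPES pH 7.4 with aprotinin, MnCl2/DNase treatment at 37° C for 30 min. Test compounds compete with 125I-labeled ET-1 for receptor binding; membrane used at 1 μg/50 μL binding buffer.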

human ETA receptors = target: T2, human ETA receptors (Homo sapiens, UniProt P25101); experiment: Endothelin binding inhibition, Binding Test #1: competition with 125I-ET-1 for ETA receptors on TE 671 cell membranes
T2 construct: endogenous in cells; host or cells: TE 671 cells (ATCC HTB 139), membrane preparation
T2 sequence (P25101 21-427): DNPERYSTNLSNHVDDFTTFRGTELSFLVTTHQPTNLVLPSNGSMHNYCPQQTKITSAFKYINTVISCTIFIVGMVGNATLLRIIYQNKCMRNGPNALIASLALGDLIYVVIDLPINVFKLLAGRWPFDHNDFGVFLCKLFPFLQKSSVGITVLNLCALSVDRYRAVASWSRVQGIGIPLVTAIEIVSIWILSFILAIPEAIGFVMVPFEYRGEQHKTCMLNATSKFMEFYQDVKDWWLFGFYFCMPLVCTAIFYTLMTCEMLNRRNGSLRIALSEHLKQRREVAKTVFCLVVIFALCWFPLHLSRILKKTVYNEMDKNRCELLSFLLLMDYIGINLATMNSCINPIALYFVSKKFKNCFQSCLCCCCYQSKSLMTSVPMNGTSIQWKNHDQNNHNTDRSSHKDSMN

[1] = Oral half-life and peak plasma levels; type: in vivo; details: for POt½ in Rat: oral; for Peak Plasma Levels: rat, in vivo
Text: As used herein, bioavailability refers to the rate and extent of absorption. Methods for determining bioavailability are well known to those of skill in the art. For example, bioavailability of any of the compounds described herein can be determined empirically by administration of the compound to an animal, followed by taking blood samples over time and measuring the blood concentration of the compound. In vivo half life (t1/2) is defined as the time it takes for the concentration of the compound in the blood to be reduced by one-half. Estimations of the area under the curve for intravenous administration can be used to estimate the area under the curve for oral administration, ylelding bioavailability data. See, e.g., Milo Gibal (1991) Biopharmaceutics and Pharmacology, 4th edition (Lea and Sediger).
Table 2 lists oral half-life, bioavailability, and in vivo activity of selected exemplary compounds. The in vivo activity was measured in a pulmonary hypertension model and is a measure of the activity of the compounds at selected dosages.

[2] = tested on: Pulmonary Hypertension model; experiment: Pulmonary Hypertension model; type: in vivo, rat; set-up: key: ++: effective at 5 mg/kg; −: no effect at 5 mg/kg; +: effective at 15 mg/kg
Protocol: As used herein, efficacy refers to the maximal effect that can be produced by a compound. Efficacy can be determined by methods known to those of skill in the art. For example, it can be determined by the properties of the compound and its receptor-effector system and is reflected in the plateau of the concentration-effect curve. In vivo efficacy refers to efficacy which is determined in an animal model. For example, in vivo efficacy of the compounds described herein can be determined by hypoxia-induced pulmonary hypertension in rat. See, e.g., DiCarlo et al. (1995) Am. J. Physiol. 269:[…]-[…]. Table 2 lists oral half-life, bioavailability, and in vivo activity of selected exemplary compounds. The in vivo activity was measured in a pulmonary hypertension model and is a measure of the activity of the compounds at selected dosages.

Papp = type: in vitro ADME; details: not told
isolated vascular strips = details: contractile agent; cited from earlier work
ETB receptors = details: at concentrations up to 100 μM; cited from earlier work
ETA receptor = details: cited from earlier work
[3] = incubation at 24° C. (values marked †)
[4] = incubation at 4° C. (values without †)

Compound | IC50 (human ETB receptor; [3]) [nM] | IC50 (human ETA receptors; [3]) [nM] | POt½ in Rat [1] [h] | Peak Plasma Levels [1] [µg/mL] | Papp (Papp) [×10⁻⁶ cm/s] | other results
endothelin-1 |  |  |  |  |  | EC50 (isolated vascular strips): 0.4 nM
Cc1cc(C)c(NC(=O)c2sccc2S(=O)(=O)Nc2onc(C)c2C)c(C)c1CC#N [N-(3,4-dimethyl-5-isoxazolyl)-2-(3-cyanomethyl-2,4,6-trimethylphenylaminocarbonyl)thiophene-3-sulfonamide] | 22800 | 1.56 | 1.8 | 10.9 |  | 
CC(=O)OCc1c(C)cc(C)c(NC(=O)c2sccc2S(=O)(=O)Nc2onc(C)c2Cl)c1C [N-(4-chloro-3-methyl-5-isoxazolyl)-2-(3-acetoxymethyl-2,4,6-trimethylphenylaminocarbonyl)thiophene-3-sulfonamide] | 730000 | 0.86 |  |  | 1.46 | 
Cc1cc(C)c(NC(=O)c2sccc2S(=O)(=O)Nc2onc(C)c2Cl)c(C)c1CC(=O)O [N-(4-chloro-3-methyl-5-isoxazolyl)-2-(3-carboxymethyl-2,4,6-trimethylphenylaminocarbonyl)thiophene-3-sulfonamide] | 106000 | 1.77 |  |  | 1.1 | 
cyclo(D-Glu-L-Ala-allo-D-Ile-L-Leu-D-Trp) [BE-18257B] |  |  |  |  |  | inhibition of binding (ETB receptors): fails to inhibit binding; IC50 (ETA receptor; aortic smooth muscle): 1400 nM; IC50 (ETA receptor; cultured aortic smooth muscle cells): 500 nM; IC50 (ETA receptor; ventricle membranes): 800 nM
Cc1noc(NS(=O)(=O)c2ccsc2C(=O)Nc2cccc(C(=O)O)c2)c1Br [N-(4-bromo-3-methyl-5-isoxazolyl)-2-[(3-carboxyphenyl)aminocarbonyl]thiophene-3-sulfonamide] | > 100000 | 62 |  |  |  | 
Cc1noc(NS(=O)(=O)c2ccsc2C(O)c2ccccc2)c1Br (stereo not drawn) [N-(4-bromo-3-methyl-5-isoxazolyl)-2-(α-hydroxybenzyl)thiophene-3-sulfonamide] |  |  |  |  |  | IC50 (human ETB receptor; [4]): 9370 nM; IC50 (human ETA receptors; [4]): 337 nM
Cc1noc(NS(=O)(=O)c2ccsc2C(=O)Oc2ccccc2)c1C [N-(3,4-dimethyl-5-isoxazolyl)-2-(phenoxycarbonyl)thiophene-3-sulfonamide] |  | 2850 |  |  |  | inhibition at 100 µM (human ETB receptor; read-out: ETB % inhibition @ 100 μM, @ 100 μM, incubation at 24° C.): 31%
Cc1cc(C)cc(CC(=O)c2sccc2S(=O)(=O)Nc2onc(C)c2Cl)c1 [N-(4-chloro-3-methyl-5-isoxazolyl)-2-(3,5-dimethylphenylacetyl)thiophene-3-sulfonamide] | 17700 | 45 |  |  |  | 

More lines, main results first:

IC50 (human ETB receptor; [3]) [nM] | IC50 (human ETA receptors; [3]) [nM] | POt½ in Rat [1] [h] | Peak Plasma Levels [1] [µg/mL] | Papp (Papp) [×10⁻⁶ cm/s] | Compound | other results
7540 | 0.88 | 25.6 | 13 |  | Cc1cc(C)c(NC(=O)c2sccc2S(=O)(=O)Nc2noc(C)c2Cl)c(C)c1CC#N [N-(4-chloro-5-methyl-3-isoxazolyl)-2-(3-cyanomethyl-2,4,6-trimethylphenylaminocarbonyl)thiophene-3-sulfonamide] | in vivo Efficacy [2]: −
31000 | 29.9 |  |  |  | Cc1noc(NS(=O)(=O)c2ccsc2C(=O)Nc2c(C)c(C)c(C)c(C)c2C)c1Cl [N-(4-chloro-3-methyl-5-isoxazolyl)-2-(pentamethylphenylaminocarbonyl)thiophene-3-sulfonamide] | melting point: 196 to 198 °C
74200 | 0.67 | 1.5 | 3 | 1.56 | Cc1cc(C)c(NC(=O)c2sccc2S(=O)(=O)Nc2onc(C)c2Cl)c(C)c1CO [N-(4-chloro-3-methyl-5-isoxazolyl)-2-(3-hydroxymethyl-2,4,6-trimethylphenylaminocarbonyl)thiophene-3-sulfonamide] | 
38800 | 1.18 | 3.4 | 40.2 | 1.78 | Cc1cc(C)c(NC(=O)c2sccc2S(=O)(=O)Nc2onc(C)c2Cl)c(C)c1CC#N [N-(4-chloro-3-methyl-5-isoxazolyl)-2-(3-cyanomethyl-2,4,6-trimethylphenylaminocarbonyl)thiophene-3-sulfonamide] | in vivo Efficacy [2]: ++
67600 | 1.62 | 5.9 | 2.6 |  | Cc1cc(C)c(NS(C)(=O)=O)c(C)c1NC(=O)c1sccc1S(=O)(=O)Nc1onc(C)c1Cl [N-(4-chloro-3-methyl-5-isoxazolyl)-2-(3-methanesulfonylamino-2,4,6-trimethylphenylaminocarbonyl)thiophene-3-sulfonamide] | 
57200 | 1.52 | 3.9 | 20 |  | Cc1cc(C)c(NC(=O)c2sccc2S(=O)(=O)Nc2onc(C)c2Cl)c(C)c1C#N [N-(4-chloro-3-methyl-5-isoxazolyl)-2-(3-cyano-2,4,6-trimethylphenylaminocarbonyl)thiophene-3-sulfonamide] | in vivo Efficacy [2]: ++
52800 | 14.6 | 4.1 | 173 | 2.32 | Cc1cc2c(cc1CC(=O)c1sccc1S(=O)(=O)Nc1onc(C)c1Cl)OCO2 [N-(4-chloro-3-methyl-5-isoxazolyl)-2-[2-methyl-4,5-(methylenedioxy)phenylacetyl]thiophene-3-sulfonamide] | in vivo Efficacy [2]: ++
114000 | 1 |  |  | 1.69 | COC(=O)Cc1c(C)cc(C)c(NC(=O)c2sccc2S(=O)(=O)Nc2onc(C)c2Cl)c1C [N-(4-chloro-3-methyl-5-isoxazolyl)-2-(3-methoxycarbonylmethyl-2,4,6-trimethylphenylaminocarbonyl)thiophene-3-sulfonamide] | 
30200 | 77.6 |  |  |  | Cc1cc(C)c(OC(=O)c2sccc2S(=O)(=O)Nc2onc(C)c2Cl)c(C)c1 [N-(4-chloro-3-methyl-5-isoxazolyl)-2-[(2,4,6-trimethylphenoxy)carbonyl]thiophene-3-sulfonamide] | 
7000 | 0.24 |  |  | 0.58 | COc1cc(C#N)c(NC(=O)c2sccc2S(=O)(=O)Nc2onc(C)c2Cl)c(OC)c1OC [N-(4-chloro-3-methyl-5-isoxazolyl)-2-[(2,3,4-trimethoxy-6-cyano)phenylaminocarbonyl]thiophene-3-sulfonamide] | 
9780 | 0.266 |  |  |  | COC(=O)c1cc(C)c(NC(=O)c2sccc2S(=O)(=O)Nc2onc(C)c2Cl)c(C)c1 [N-(4-chloro-3-methyl-5-isoxazolyl)-2-[(4-methoxycarbonyl-2,6-dimethyl)phenylaminocarbonyl]thiophene-3-sulfonamide] | 
25500 | 0.92 | 3.4 | 2.8 |  | Cc1cc(C)c(S(N)(=O)=O)c(C)c1NC(=O)c1sccc1S(=O)(=O)Nc1onc(C)c1Cl [N-(4-chloro-3-methyl-5-isoxazolyl)-2-(3-sulfamoyl-2,4,6-trimethylphenylaminocarbonyl)thiophene-3-sulfonamide] | 
